Structures are written as SMILES.

The source of these data is patent US20240019450A1, “FLUORESCENT SENSORS” (THE UNIVERSITY OF SYDNEY, priority 2020, published 2024).

One data set in a line: Fluorescence spectroscopy of the sensors (excitation and emission). The data set is classed as physicochemical. As to the method:
Fluorescence spectroscopy was performed on a bench top Perkin-Elmer Enspire Multimode Plate Reader. […] 5 replicates of each sensor-metal or sensor-complex solution were used. […] Fluorescence responses to analytes were determined using integrated emission intensity, and for each sensor a control well containing no analyte was included to normalise the response for analysis.
The sensors were tested using the procedure described in Example 4, and the obtained data was analysed using LDA. […] Sensors S1-S9 were used in subsequent experiments.
Consider `CCN(CC)c1ccc2c(c1)Oc1cc(N(CC)CC)ccc1C21c2ccccc2C(=O)N1OCc1cn(Cc2ccccc2)nn1` [S7], for which the “excitation wavelength (maximum excitation wavelength of the sensor)” value (“excitation wavelength” for short) is reported as 445 nm. `O=[N+]([O-])c1ccc2c(/N=N/c3ccc4ccccc4c3O)c(O)cc(S(=O)(=O)[O-])c2c1.[Na+]` [S8]: the “excitation wavelength” value came out at 280 nm. With `O=C1c2ccccc2C2(c3ccc(O)cc3Oc3cc(O)ccc32)N1NC(=S)S` [S1], the “excitation wavelength” value was found to be 480 nm. Still for that read-out and setting: the figure for `O=S(=O)([O-])c1cc(O)c(N=Nc2c(O)ccc3ccccc23)c2ccccc12.[Na+]` [S9] is 280 nm; for `Cc1cc(=O)oc2c(CN(CC(=O)O)CC(=O)O)c(O)ccc12` [S5] it is 380 nm.

Experiment in the next data set: not given
Compound `S=C(S)n1ncc2ccccc21` [formula X, 1H-indazole-1-carbodithioic acid] came in with a melting point of 220 °C.

`S=C(S)C1=C(NCc2ccccc2)CCC1` [formula XIV, 2-(benzylamino)cyclopent-1-enecarbodithioic acid] had a melting point of 100 °C.
